Legend:
rTRPV4-R746D = rTRPV4-R746D (Rattus norvegicus, UniProt Q9ERZ8, R746D); experiment: Inside-out patch-clamp, HEK cells transfected with rTRPV4-R746D; format: biochemical; design: expressed in transfected cells; host or cells: HEK293; conditions: 5 μM LPC 18:1
Experimental: (§1) Cell culture and transfection. HEK293 cells (ATCC® CRL-1573) were cultured on poly-D-lysine coated coverslips in 24-well plate containing DMEM media with high-Glucose (Gibco, Gaithersburg, MD) supplemented with 10% fetal bovine serum (FBS, HyClone Laboratories, Logan, UT) and 100 U/mL of penicillin/streptomycin (Gibco, Gaithersburg, MD). Cell cultures were maintained with 5% of CO2 in a humidified incubator at 37° C. HEK cells were transfected with rat or human wild type or mutant TRPV4 channels with EGFP or YFP coupled to their C-termini (1.5 μg of plasmid for excised patch clamp and Ca^2+ imaging and 200 ng for single-channel experiments). […]
(§2) Electrophysiology. Currents were recorded using the inside-out configuration of the patch-clamp technique (Hamill et al. Pflugers Arch. 1981, 391, 85-100). […] Mean current values in response to GSK1016790A or LPC 18:1 were measured after channel activation had reached the steady-state (˜3 min). […] Currents were low-pass filtered at 2 kHz and sampled at 10 kHz with an EPC 10 amplifier (HEKA Elektronik) and were plotted and analyzed with Igor Pro (Wavemetrics Inc.).

[1] = system: human TRPV4 mutations (R746C, R746G, R746D, K754G, R757G, R774G, and W776G); experiment: Ca2+ imaging in HEK cells transfected with human TRPV4 mutations; format: cell-based
Experimental: as §1, with “experiments). The jetPEI™ Polyplus transfection reagent (Polyplus Transfection, New York, NY) for electrophysiology or Lipofectamine™ 2000 Reagent (Invitrogen, Waltham, MA) for Ca^2+ imaging were used for transfections per manufacturer's instructions as previously described (Chen et al. Pain 2014, 155, 2662-2672; Morales-Lazaro et al. Nat. Commun. 2016, 7, 13092).” for “experiments).”
In vitro and ex vivo Ca^2+ imaging. […] Ratios of emissions were acquired at 0.5 Hz. ΔR/R0 was determined as the fraction of the increase of a given ratio over baseline ratio divided by baseline ratio. […]

hTRPV4-R269H = molecular target: T1, hTRPV4-R269H (Homo sapiens, UniProt Q9HBA0, R269H); experiment: Inside-out patch-clamp, hTRPV4-R269H; format: biochemical; conditions: 5 μM LPC 18:1
T1 construct: expressed in transfected cells; host or cells: HEK293
Experimental: as §1, §2

mouse keratinocytes = experiment: Ca2+ imaging in cultured mouse keratinocytes; format: cell-based; conditions: inhibitor 10 μM
Experimental: Basal keratinocytes were separated from the cornified sheets by filtration through a […] cell strainer. Keratinocytes were plated on collagen I-coated dishes or glass coverslips and grown in EME media (Gibco, Gaithersburg, MD) containing 8% chelex (Bio-rad, Hercules, CA)-treated FBS with the final Ca^2+ adjusted to 0.05 mM, bovine pituitary extract (50 μg/mL), epidermal growth factor (5 ng/mL), and lx antibiotics/antimycotics (Gibco, Gaithersburg, MD) in a humidified incubator with 5% CO2 at 37° C. for 5-7 days until use. To knockdown Trpv4 in isolated keratinocytes from newborn keratinocyte-Trpv4 cKO mice, cells were treated with 4-OH tamoxifen at 500 nM for 72 h.
In vitro and ex vivo Ca^2+ imaging. […] Ca^2+ imaging of cultured cells in response to chemicals was conducted after loading with 5 μM Fura2-AM (Invitrogen, Waltham, MA) for 45 min after a ratiometric Ca^2+-imaging protocol with 340/380-nm blue light for dual excitation. Ratios of emissions were acquired at 0.5 Hz. ΔR/R0 was determined as the fraction of the increase of a given ratio over baseline ratio divided by baseline ratio. […] Control cells received vehicles.

rTRPV4-R746D, sequence (Q9ERZ8 whole entry R746D): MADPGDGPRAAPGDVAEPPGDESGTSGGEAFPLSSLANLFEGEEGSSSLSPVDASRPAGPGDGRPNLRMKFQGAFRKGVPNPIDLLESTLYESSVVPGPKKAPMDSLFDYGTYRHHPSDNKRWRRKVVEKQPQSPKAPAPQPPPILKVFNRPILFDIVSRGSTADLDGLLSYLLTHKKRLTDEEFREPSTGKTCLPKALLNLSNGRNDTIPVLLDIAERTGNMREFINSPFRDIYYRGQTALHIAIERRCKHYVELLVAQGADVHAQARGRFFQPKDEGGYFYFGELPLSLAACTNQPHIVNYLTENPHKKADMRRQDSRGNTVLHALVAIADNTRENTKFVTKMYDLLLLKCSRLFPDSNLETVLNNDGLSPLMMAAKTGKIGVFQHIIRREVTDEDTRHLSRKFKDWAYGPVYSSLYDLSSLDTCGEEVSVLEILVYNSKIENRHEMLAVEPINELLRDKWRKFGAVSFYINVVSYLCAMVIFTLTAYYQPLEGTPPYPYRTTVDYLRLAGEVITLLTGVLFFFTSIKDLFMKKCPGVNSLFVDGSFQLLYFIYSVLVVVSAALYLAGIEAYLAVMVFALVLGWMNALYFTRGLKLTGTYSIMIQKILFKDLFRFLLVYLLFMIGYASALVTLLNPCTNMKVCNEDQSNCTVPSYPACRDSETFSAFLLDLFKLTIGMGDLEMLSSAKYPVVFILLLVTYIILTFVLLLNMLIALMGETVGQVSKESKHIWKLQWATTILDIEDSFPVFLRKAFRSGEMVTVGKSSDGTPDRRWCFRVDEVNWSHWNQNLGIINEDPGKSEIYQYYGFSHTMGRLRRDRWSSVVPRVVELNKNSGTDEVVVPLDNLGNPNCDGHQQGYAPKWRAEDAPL
T1 sequence (Q9HBA0 whole entry R269H): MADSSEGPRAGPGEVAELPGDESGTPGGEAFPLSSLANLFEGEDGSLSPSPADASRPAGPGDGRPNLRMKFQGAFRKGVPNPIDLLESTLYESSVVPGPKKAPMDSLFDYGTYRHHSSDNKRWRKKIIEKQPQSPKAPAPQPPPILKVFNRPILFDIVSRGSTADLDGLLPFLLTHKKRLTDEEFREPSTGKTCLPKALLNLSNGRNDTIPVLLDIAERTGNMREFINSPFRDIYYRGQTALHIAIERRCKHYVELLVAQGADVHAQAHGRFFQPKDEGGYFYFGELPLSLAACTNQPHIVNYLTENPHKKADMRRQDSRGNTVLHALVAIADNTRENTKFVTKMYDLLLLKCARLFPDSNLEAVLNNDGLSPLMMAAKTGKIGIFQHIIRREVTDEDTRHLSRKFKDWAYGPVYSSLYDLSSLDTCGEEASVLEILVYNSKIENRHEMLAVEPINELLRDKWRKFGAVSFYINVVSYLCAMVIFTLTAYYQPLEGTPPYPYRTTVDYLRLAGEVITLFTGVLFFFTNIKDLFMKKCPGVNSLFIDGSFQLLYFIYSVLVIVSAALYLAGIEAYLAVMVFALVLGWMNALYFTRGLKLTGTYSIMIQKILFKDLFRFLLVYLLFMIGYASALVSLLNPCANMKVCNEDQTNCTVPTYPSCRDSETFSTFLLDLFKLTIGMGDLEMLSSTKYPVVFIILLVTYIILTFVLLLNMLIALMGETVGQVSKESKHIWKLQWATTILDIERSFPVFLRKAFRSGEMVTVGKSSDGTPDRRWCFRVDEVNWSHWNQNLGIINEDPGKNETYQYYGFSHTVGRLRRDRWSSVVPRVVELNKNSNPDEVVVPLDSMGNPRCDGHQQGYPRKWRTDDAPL

Molecule	average activation of currents, normalized to 1 μM GSK101 (rTRPV4-R746D) [%]	Ca2+ signal induced by 10 μM LPC 18:1 in TRPV4 mutants vs hTRPV4 [1]	average activation of currents, normalized to 1 μM GSK101 (hTRPV4-R269H) [%]	effect on LPA 18:1 (10 μM) induced Ca2+ signal (mouse keratinocytes)	effect on LPC (10 μM) induced Ca2+ signal (mouse keratinocytes)
LPC 18:1	15±3	drastically reduced	42±6	–	–
Cc1c(C(=O)Nc2cccc(C(F)(F)F)c2)cc(-c2ccccc2)n1CCCN1CCOCC1 [HC067047]	–	–	–	remained unchanged	significantly reduced

From patent publication US20240002846A1, “COMPOSITIONS AND METHODS FOR THE DIAGNOSIS AND TREATMENT OF ITCH” (Duke University, priority 2020, published 2024)
